Data: the supplement of paper PMC8967900

Columns and labels:
Assay in all cases: selective drug sensitivity score (sDSS, relative to normal bone marrow) (sDSS (score)); higher = more potent and effective on the cell line relative to normal bone marrow cells
Details in all cases: 72 h
[1] = tested on: PEER
[2] = tested on: P12-ICHIKAWA
[3] = tested on: COG-LL-394h
[4] = tested on: MHH-CALL-3
[5] = tested on: CCRF-CEM
[6] = tested on: RPMI-8402
[7] = tested on: MN-60
[8] = tested on: JURKAT
[9] = tested on: P30-OHKUBO
[10] = tested on: PF-382
[11] = tested on: MOLT-14
[12] = tested on: REH
[13] = tested on: DND-41
[14] = tested on: COG-LL-319h
[15] = tested on: ALL-SIL
[16] = tested on: TANOUE
[17] = tested on: NALL-1
[18] = tested on: NALM-6
[19] = tested on: KARPAS-45
[20] = tested on: 380
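Further: ALL cell lines in 384-well plates, five doses spanning 10,000-fold, each plate scaled between vehicle and 100 µmol/L benzalkonium chloride controls, sDSS an adapted area-under-curve metric.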

Row | SMILES | selective drug sensitivity score [1] | selective drug sensitivity score [2] | selective drug sensitivity score [3] | selective drug sensitivity score [4] | selective drug sensitivity score [5] | selective drug sensitivity score [6] | selective drug sensitivity score [7] | selective drug sensitivity score [8] | selective drug sensitivity score [9] | selective drug sensitivity score [10] | selective drug sensitivity score [11] | selective drug sensitivity score [12] | selective drug sensitivity score [13] | selective drug sensitivity score [14] | selective drug sensitivity score [15] | selective drug sensitivity score [16] | selective drug sensitivity score [17] | selective drug sensitivity score [18] | selective drug sensitivity score [19] | selective drug sensitivity score [20]
1 | COC(=O)c1ccc([C@H]2c3[nH]c4ccccc4c3C[C@H](C(=O)OC)N2C(=O)CCl)cc1 [RSL3] (top concentration 10000 nM) | 0 | 0 | 0 | 0.7 | 0.2 | 1.2 | 0 | 0 | 2.7 | 0.9 | 0 | 3.1 | 0 | 0 | 0 | 0 | 5.2 | 1.5 | 0 | 14.2
2 | Cc1cnc(NC(=O)Nc2cc(Br)c(C)cc2OC[C@@H]2CNCCO2)cn1 [Rabusertib] (top concentration 1000 nM) | -0.74 | -0.74 | -0.74 | -0.74 | 0.06 | 0.46 | 3.56 | -0.74 | -0.74 | -0.64 | 0.16 | 0.06 | 6.16 | 4.26 | -0.74 | 0.46 | -0.74 | 1.16 | 0.36 | -0.74
3 | CCOCc1nc2c(N)nc3ccccc3c2n1CC(C)(C)O [Resiquimod] (top concentration 10000 nM) | -4.92 | -4.92 | -4.42 | -4.82 | -4.92 | -4.92 | -1.82 | -4.52 | -2.82 | -4.72 | -4.92 | -4.92 | -4.92 | 5.68 | -4.92 | -3.02 | -4.92 | -4.42 | -4.92 | -4.62
4 | C[C@H]1CNCCCN1S(=O)(=O)c1cccc2cncc(F)c12 [Ripasudil] (top concentration 10000 nM) | 1.88 | 1.18 | -0.22 | -0.22 | -0.12 | 0.98 | -0.22 | -0.22 | -0.22 | -0.22 | -0.22 | -0.22 | -0.22 | 1.18 | 0.78 | -0.22 | -0.22 | -0.22 | 0.88 | 3.28
5 | Cc1nc(C(=O)NCC(=O)O)c(O)c2ccc(Oc3ccccc3)cc12 [Roxadustat] (top concentration 10000 nM) | 0.58 | -0.82 | -1.12 | -1.12 | -1.02 | -0.82 | -1.12 | -0.42 | -1.12 | -0.52 | -0.32 | -1.12 | -1.12 | 2.28 | -1.12 | -1.12 | -1.12 | -1.12 | -1.12 | 7.48
6 | CN(C)C[C@@H]1CCn2cc(c3ccccc32)C2=C(C(=O)NC2=O)c2cn(c3ccccc23)CCO1 [Ruboxistaurin] (top concentration 10000 nM) | 0.46 | -1.74 | 0.76 | -4.24 | -0.34 | -1.74 | -5.44 | -1.84 | 0.46 | -1.34 | 1.66 | -0.54 | -0.44 | -1.04 | -2.94 | -8.24 | -3.04 | -2.64 | -0.14 | 3.96
7 | CN(CC(=O)N(Cc1ccc(C2CCCCC2)cc1)c1ccc(C(=O)O)cc1)S(=O)(=O)c1c(F)c(F)c(F)c(F)c1F [SH-4-54] (top concentration 25000 nM) | -4.54 | -6.04 | -5.34 | -0.84 | -4.54 | -5.74 | -6.54 | -6.14 | -5.24 | -3.74 | -4.34 | -5.04 | -2.74 | -3.04 | -3.84 | -4.04 | -6.84 | -3.34 | -4.24 | 6.06
8 | Cc1cc2c(C(=O)NC[C@H](C)c3ccccc3)c(O)c(O)cc2c(O)c1-c1c(C)cc2c(C(=O)NC[C@H](C)c3ccccc3)c(O)c(O)cc2c1O [Sabutoclax] (top concentration 25000 nM) | 14.5 | 13.7 | 15.7 | -8.12 | 13.8 | 4.38 | 13 | 16.7 | 15.9 | 11.1 | 16.8 | 17.5 | 10.6 | 10.8 | 12.2 | 2.98 | -8.22 | 14.3 | 16.2 | 14.1
9 | CC1=C2C[C@H]3[C@@H](CC[C@@H]4C[C@H](NS(C)(=O)=O)CC[C@@]43C)[C@@H]2CC[C@@]2(C1)O[C@@H]1C[C@H](C)CN[C@H]1[C@H]2C [Saridegib] (top concentration 10000 nM) | 2.94 | -0.06 | 5.34 | 0.34 | -0.46 | 0.54 | -1.16 | -0.56 | -0.66 | 0.34 | 1.04 | -1.16 | 4.74 | -0.06 | -1.16 | -1.16 | -0.26 | -1.16 | 3.44 | -0.96
